Assay results: patent US20170183318A1, “AMIDE COMPOUNDS, METHODS FOR PREPARATION, AND USE THEREOF AS AGENTS FOR THE TREATMENT AND PREVENTION OF DISEASES CAUSED BY RNA- AND/OR DNA-CONTAINING VIRUSES, AND CONCOMITANT DISEASES” (OBSCHESTVO S OGRANICHENNOI OTVETSTVENNOSTIYU …, priority 2014, published 2017)

Tests used:
[1] = tested on: herpes simplex virus belonging to antigenic type 2; experiment: Murine model of experimental herpetic meningoencephalitis (mortality); assay type: in vivo, white outbred mice; settings: Mus musculus, po, 336 h
Experimental: In the study, herpes simplex virus belonging to antigenic type 2 was used. White outbred mice weighing 7-8 g were infected i/c (intracerebrally) in a volume of 0.05 ml/mouse comprising a dose of 10LD50. The infectious dose of the virus that caused 100% mortality in mice was 10LD50. Each experimental group comprised 20 mice. Intact animals served as control and were hold in a separate room under the same conditions as the experimental animals. The antiviral activity of the compounds of general formula I was studied by oral administration of the compounds to infected mice once daily at a dose of 30 mg/kg/mouse 24, 48, 72, 96, and 120 hours after infection of the animals with the virus. The mice of the control group were administered placebo (0.2 mL of physiological solution) under the same conditions. The animals were monitored for 14 days after infection by registration the mouse death in the groups.
Each animal was subjected to once-daily observation. The observation included the assessment of general behavior and body condition of animals. The animals were handled according to the International Standards.
(§1) The activity of the compounds was evaluated by comparing mortality rates in the groups of animals administered a preparation and placebo.

[2] = tested on: Sendai strain of parainfluenza virus; experiment: Antiviral activity against parainfluenza virus in mice (mortality); assay type: in vivo, white outbred mice; settings: Mus musculus, po, 336 h, 10LD50 intranasally, 30 mg/kg orally once daily 24-120 h after infection, 14 days observation, 20 mice per group, virus control 75.0
Experimental: In the study the Sendai strain of parainfluenza virus was used. White outbred mice weighing 10-12 g were infected intranasally with the Sendai strain of parainfluenza virus adapted to mouse lungs under brief ether anesthesia in a volume of 0.05 ml/mouse. The infectious dose of the virus that caused 70-80% mortality in mice was 10LD50. Each group used in the experiment comprised 20 animals. Intact animals served as control and were hold in a separate room under the same conditions as the experimental animals. The antiviral activity of the compounds of general formula I was studied by oral administration of the compounds to infected mice once daily at a dose of 30 mg/kg/mouse 24, 48, 72, 96, and 120 hours after infection of the animals with the virus. The mice of the control group were administered placebo (0.2 mL of physiological solution) under the same conditions. The animals were monitored for 14 days after infection by registration the mouse death in the groups.
Each animal was subjected to once-daily observation. The observation included the assessment of general behavior and body condition of animals. In days of administration of preparations, the observation was conducted before administration of a preparation in a certain time and about two hours after administration. The animals were handled according to the International Standards.
as §1

[3] = tested on: Staphylococcus aureus; experiment: Murine model of staphylococcal pneumonia (bacterial growth from lung imprints); assay type: in vivo, outbred mice; settings: 5 days before and 2 days after S. aureus infection, lung imprints on Columbia agar, control 82.5
Experimental: The efficiency of the compounds was evaluated in outbred mice (females) infected with Staphylococcus aureus (mouse-adapted strain). The administration of the compounds was started 5 days before infection, orally at doses of 15 and 30 mg/kg in a volume of 0.2 mL. On day 5, the mice were infected intranasally under brief ether anesthesia by administration of Staphylococcus aureus at a dose of 10^9 CFU in a volume of 0.05 mL. One hour after infection, the administration of the compounds to the mice was continued at the above-indicated doses for additional 2 days. The reference drug was ampicillin administered intravenously at a single dose of 20 mg/kg. The control was mice infected with Staphylococcus aureus intranasally and treated with PBS. The mice were sacrificed two days after, the breast was dissected, and lung imprints were made in Petri dishes with Columbia agar. After incubation for 24 hours at 30° C., the presence (or absence) of Staphylococcus aureus bacterial growth was fixed in comparison with the control. The intensity of bacterial growth was evaluated in scores and expressed in %.

[4] = Rat model of nasopharyngitis induced by formalin (nasal mucosa changes, cell elements in nasal lavage); assay type: in vivo; settings: Wistar rats, 18 mg/kg for 3 days; for Mucous membrane of nasal passages: Without changes (number of animals): number of animals out of n = 10, control 0 of 20; for Mucous membrane of nasal passages: Discharge mucus from the nasal passages (number of animals): number of animals out of n = 10, control 20 of 20
Experimental: Nasopharyngitis was induced by intranasal administration of formalin to each nasal passage of rats.
The administration of formalin to the nasal passages of rats leads to the dissemination of inflammation to adjacent tissues, resulting in a clinical pattern similar to the symptoms of nasopharyngitis in a human.
After an acclimatization period, the following groups were formed: • intact animals administered intragastrically a physiological solution in an amount of 0.2 ml, without induction of nasopharyngitis; • a control group consisted of animals administered intragastrically a physiological solution in an amount of 0.2 ml for 3 days after induction of nasopharyngitis; and • animals administered the studied compounds at a dose of 18 mg/kg for 3 days after induction of nasopharyngitis.
Clinical observation of each animal was performed every day at least twice daily.
The caused pathology was characterized by hyperplasia, increased number of caliciform cells, pronounced infiltration of mononuclear cells and leucocytes, and mucus hyperproduction by submucosal glands.
After euthanasia, the inflammation pattern in the nasal passages and throat was studied in each group of animals. The nasal passages were washed with 5 mL of physiological solution and the score of cell elements were counted in 1 μL.

[5] = tested on: HCoV (antigenically similar to prototype strain OC-43); experiment: Murine model of coronavirus infection (mortality); assay type: in vivo; settings: Mus musculus, po, 336 h; HCoV intranasally, C57BL/6 mice; 30 mg/kg orally once daily for 5 days from 24 h after infection; 14 days; 20 mice per group; virus control 60.0
Experimental: In the study, author's strain HCoV was used, identified as group 2 virus antigenically similar to prototype strain OC-43. The efficiency of the compounds was studied in C57BL/6 mice by comparing mortality rates in the treated and control mice for 14 days after infection. Each experimental group comprised 20 mice. The animals were infected intranasally in a volume of 0.03 ml/mouse under brief ether anesthesia.
The studied compounds were administered to the animals orally at a dose of 30 mg/kg of body weight. The animals of the control group were administered physiological solution. Preparations were administered once daily for 5 days. The treatment of animals was started 24 hours after infection.

[6] = tested on: human adenovirus type 5; experiment: Model of experimental adenovirus infection (destructive processes in the liver, electron microscopy); assay type: in vivo; settings: newborn Syrian hamsters, 30 mg/kg orally 12, 36, 60 h after infection, liver 72 h after infection, virus control Intensive damages
Experimental: In the study, human adenovirus type 5 was used. In order to play adenovirus infection were used Newborn Syrian hamsters, in which the virus caused disseminated viral infection with damage to liver, lung and heart, were used to reproduce the viral infection. The animals were studied 48 hours after birth. Each group comprised 5 hamsters. The virus was inoculated subcutaneously in a volume of 0.1 mL, at a dose of 10^5 TCID50. The treatment was carried out orally with the compounds of general formula I at a dose of 30 mg/kg of body weight 12, 36, and 60 hours after infection. The animals of the placebo group were administered phosphate buffered saline. Intact animals served as control and were hold in a separate room under the same conditions as the experimental animals. 72 hours after infection, the animals of each group were euthanized, dissected, and the liver was isolated. The therapeutic effect was evaluated by the action on ultrastructural features of the morphogenesis of adenovirus infection in the liver by electron microscopy.

SMILES	mortality at 30 mg/kg [1] [%]	mortality at 30 mg/kg [2] [%]	Bacterial growth, in % ([3]; 15 mg/kg orally)	Bacterial growth, in % ([3]; 30 mg/kg orally)	Mucous membrane of nasal passages: Without changes (number of animals) [4]	Mucous membrane of nasal passages: Discharge mucus from the nasal passages (number of animals) [4]	mortality at 30 mg/kg [5] [%]	Evaluation of damage (intensity of destructive processes in the liver) [6]
O=C(O)CCCC(=O)NCCC1CCCN1 (stereo not drawn) [Compound 2]	55	35	50 (sporadic colonies (up to 100))	55%	3	7	30	Mild damage
O=C(O)CCCC(=O)NCCCc1cccs1 [Compound 34]	70	15	25 (sporadic colonies (up to 10))	50 (sporadic colonies (up to 100))	3	7	45	Mild damage
O=C(O)CCCC(=O)NC(Cc1c[nH]cn1)C(=O)O (stereo not drawn) [Compound 251]	65	35	55%	20%	4	6	30	Mild damage
O=C(O)CCCC(=O)NCCc1nc2ccccc2s1 [Compound 275]	60	40	35%	40%	3	7	40	Mild damage
O=C(O)CCCC(=O)NCCC1CCCCN1 (stereo not drawn) [Compound 6]	60	25	45%	55%	4	6	35	Mild damage
CC(Cc1cnc[nH]1)NC(=O)CCCC(=O)O (stereo not drawn) [Compound 115]	65	30	55%	25 (sporadic colonies (up to 10))	3	7	30	Mild damage
CC(C)N(CCc1cnc[nH]1)C(=O)CCCC(=O)O [Compound 141]	50	40	55%	40%	4	6	35	Mild damage
O=C(O)CCCC(=O)NCCCc1c[nH]cn1 [Compound 118]	70	30	55%	50 (sporadic colonies (up to 100))	5	5	40	Mild damage
Cc1csc(CCNC(=O)CCCC(=O)O)n1 [Compound 197]	55	25	45%	60%	6	4	45	Mild damage
